Measured values published in patent US20180344763A1, “METHODS FOR ADVERSELY AFFECTING BIOFILMS” (Commonwealth Scientific and Industrial Research Organisation, priority 2015, published 2018).
In brackets after ≈: the same amount, converted by molar mass.

Key:
[1] = test system: C. albicans; experiment: Broth microdilution MIC, planktonic cells; assay type: cell-based, Candida albicans; settings: C. albicans single species culture, RPMI-1640, 48 h
Procedure: (§1) Minimum inhibitory concentrations (MICs) for antibacterial and antifungal agents were determined using the broth microdilution method according to CLSI guidelines M07-A9 (for S. aureus) and M27-A3 (for C. albicans), but replacing Muller-Hinton broth with RPMI-1640 for antibacterial MIC testing. One hundred microlitres of two-fold serial dilutions of the drugs prepared in RPMI-1640 were added into the wells of 96-well microplates. Exponentially grown cultures were diluted in RPMI-1640 to a density of ˜1×10^3 CFU/mL for C. albicans and ˜1×10^6 CFU/mL for S. aureus and 100 μL were added to each well. Microplates were incubated for 18 h at 35° C. for S. aureus and 48 h for C. albicans. Bacterial or fungal growth was examined visually with the aid of a mirror reader. The antibacterial MIC was defined as the lowest concentration resulting in complete growth inhibition. The MIC of antifungals was read as the lowest concentration that prevents discernible growth for amphotericin B or polymers, or as the lowest concentration that inhibits at least 50% of fungal growth for fluconazole and caspofungin, corresponding to a score of zero or two in the CLSI M27-A3 protocol.

[2] = test system: C. albicans biofilms; experiment: Antimicrobial susceptibility of single biofilm (XTT, biofilm MIC80); assay type: cell-based, Candida albicans; settings: for Biofilm MIC80: C. albicans single species biofilm, 48 h treatment; for Activity against C. albicans monomicrobial biofilms: compared with planktonic growth
Procedure: (§2) Single biofilms of S. aureus or C. albicans were set up in 96-well microplates as described above. After overnight incubation, the cell suspensions were aspirated and the wells were rinsed twice with 100 μL of PBS per well to remove non-adherent cells. Two hundred microlitres of antimicrobial agents were added into each well, and the treatments lasted for 18 h for S. aureus and 48 h for C. albicans. After the treatment, the suspensions were removed and the microwells were washed twice with PBS. Two hundred microlitres of 2, 3-bis (2-methoxy-4-nitro-5-sulfophenyl)-5-[(phenylamino) carbonyl]-2H-tetrazolium hydroxide (XTT, 0.5 mg/L) solution were added into each well and the microplate were incubated at 37° C. in the dark for 2 h. One hundred microliters of XTT solution were transferred to a new microplate and read at OD492. Alternatively, the efficacy of antimicrobial agents against biofilms was determined based on the reduction in viable counts after exposure to antimicrobials. The ratio of cell survival (cell density after antimicrobial treatment) relative to antimicrobial-free culture (cell density of the drug-free biofilms) (×100) was calculated.

[3] = test system: S. aureus; experiment: Broth microdilution MIC, planktonic cells; assay type: cell-based; settings: Staphylococcus aureus; S. aureus single species culture, RPMI-1640, 18 h
[4] = test system: S. aureus biofilms; experiment: Antimicrobial susceptibility of single biofilm (XTT, biofilm MIC80); assay type: cell-based, Staphylococcus aureus; settings: S. aureus single species biofilm, 18 h treatment
Procedure: as §2

[5] = test system: C. albicans; experiment: Planktonic MIC in presence or absence of isolated biofilm matrix; assay type: cell-based, Candida albicans
Procedure: as §1
(§3) Extracellular matrix was isolated from Candida or polymicrobial biofilms following the method reported in PLoS pathogens 2012, 8:e1002848. Biofilms were established by growing cultures in 6-well TCPS microplates for 48 h at 37° C. Supernatants were carefully removed from each well and the biofilms were washed once with sterile distilled water. One millilitre of distilled water was added into each well, and the biofilms were removed using a cell scraper. This step was repeated three times. The suspensions containing dislodged biofilms were then transferred into a 50 ml Falcon tube, sonicated with a Branson Sonicator for 10 min (duty cycle constant, output 20%). The suspensions were vortexed for 2 min at full speed (4×30 s), prior to centrifugation at 6000 rpm for 15 min for 5 times. The supernatants containing the extracellular matrix were removed and stored at −20° C. […]

[6] = test system: C. albicans 24 h single biofilms; experiment: Catheter lock solution re-growth assay (MBEC); assay type: cell-based, Candida albicans; settings: C. albicans 24 h biofilm, 18 h exposure
Procedure: (§4) Biofilms were washed three times with saline to remove the residual antimicrobial agents. Two hundred microliter volumes of TSB were then added to each well and microplates were incubated at 35° C. for a further 48 h. A microplate shaker (speed 2) ([…], Flow laboratories, Germany) was used to facilitate the multiplication and release of any living cells remaining in the biofilms. After 48 h, 150 μL of the contents in each well in the microplate was transferred to a U-bottom microplate and examined visually for turbidity. The lowest concentration of antimicrobial agents corresponding to clear wells was defined as the minimum biofilm eradication concentration (MBEC) for successful use as CLS.

[7] = test system: C. albicans-S. aureus polymicrobial biofilms; experiment: Catheter lock solution re-growth assay (MBEC); assay type: cell-based, Candida albicans and Staphylococcus aureus; settings: polymicrobial 24 h biofilm, 18 h exposure
Procedure: as §4

[8] = test system: S. aureus 24 h single biofilms; experiment: Catheter lock solution re-growth assay (MBEC); assay type: cell-based, Staphylococcus aureus; settings: S. aureus 24 h biofilm, 18 h exposure
Procedure: as §4

[9] = test system: S. aureus; experiment: Planktonic MIC in presence or absence of isolated biofilm matrix; assay type: cell-based, Staphylococcus aureus
Procedure: as §1, §3

`C[C@@H]1[C@H](O)[C@@H](C)/C=C/C=C/C=C/C=C/C=C/C=C/C=C/[C@H](O[C@@H]2O[C@H](C)[C@@H](O)[C@H](N)[C@@H]2O)C[C@@H]2O[C@](O)(C[C@@H](O)C[C@@H](O)[C@H](O)CC[C@@H](O)C[C@@H](O)CC(=O)O[C@H]1C)C[C@H](O)[C@H]2C(=O)O` [Amphotericin B, amphotericin B] was tested, and the “Planktonic MIC” value [1] was 1 µg/mL, the “Biofilm MIC80” value [2] was 1 µg/mL and the “Activity against C. albicans monomicrobial biofilms” value [2] was “retaining their activities”.

With `Cc1onc(-c2ccccc2)c1C(=O)N[C@@H]1C(=O)N2[C@@H]1SC(C)(C)[C@@H]2C(=O)O` [Oxacillin, oxacillin] the MIC [3] was 0.06 µg/mL (≈ 0.149 µM) and the “Biofilm MIC80” value [4] was >1024 µg/mL.

`O=C(O)c1cn(C2CC2)c2cc(N3CCNCC3)c(F)cc2c1=O` [Ciprofloxacin, ciprofloxacin] was tested, and the “Biofilm MIC80” value [4] was >1024 µg/mL.

For `OC(Cn1cncn1)(Cn1cncn1)c1ccc(F)cc1F` [Fluconazole, fluconazole], the “Increase in MIC in presence of biofilm matrix” value ([5]; C. albicans or polymicrobial biofilm matrix) was 16 fold, the “MIC, C. albicans biofilm matrix” value ([5]; in presence of C. albicans biofilm matrix) was 8 µg/mL and the “MIC, polymicrobial biofilm matrix” value ([5]; in presence of polymicrobial biofilm matrix) was 8 µg/mL. The “Biofilm MIC80” value [2] was >1024 µg/mL.

For `CCO` [Ethanol, ethanol], the “MBEC as catheter lock solution” value [6] was 20% (V/V), the “MBEC as catheter lock solution” value [7] was 20% (V/V) and the “MBEC as catheter lock solution” value ([7]; listed as ethanol) was 20 % (V/V). The “MBEC as catheter lock solution” value [8] was 20% (V/V).

`CN[C@H](CC(C)C)C(=O)N[C@H]1C(=O)N[C@@H](CC(N)=O)C(=O)N[C@H]2C(=O)N[C@H]3C(=O)N[C@H](C(=O)N[C@H](C(=O)O)c4cc(O)cc(O)c4-c4cc3ccc4O)[C@H](O)c3ccc(c(Cl)c3)Oc3cc2cc(c3O[C@@H]2O[C@H](CO)[C@@H](O)[C@H](O)[C@H]2O[C@H]2C[C@](C)(N)[C@H](O)[C@H](C)O2)Oc2ccc(cc2Cl)[C@H]1O` [Vancomycin, vancomycin] was tested, and the MIC [3] was 1 µg/mL (≈ 0.69 µM), the “MIC, C. albicans biofilm matrix” value ([9]; S. aureus, in presence of C. albicans biofilm matrix) was 1 µg/mL and the “MIC, polymicrobial biofilm matrix” value ([9]; S. aureus, in presence of polymicrobial biofilm matrix) was 2 µg/mL. The MIC ([9]; Staphylococcus aureus, read-out: MIC, medium only) was 2 µg/mL (≈ 1.38 µM) and the “Biofilm MIC80” value [4] was >1024 µg/mL.

`CO[C@H]1/C=C/O[C@@]2(C)Oc3c(C)c(O)c4c(O)c(c(/C=N/N5CCN(C)CC5)c(O)c4c3C2=O)NC(=O)/C(C)=C\C=C\[C@H](C)[C@H](O)[C@@H](C)[C@@H](O)[C@@H](C)[C@H](OC(C)=O)[C@@H]1C` [Rifampicin, rifampicin] was tested, and the MIC [3] was 0.015 µg/mL (≈ 0.0182 µM) and the “Biofilm MIC80” value [4] was >1024 µg/mL.

`CC[C@H](C)C[C@H](C)CCCCCCCCC(=O)N[C@H]1C[C@@H](O)[C@@H](NCCN)NC(=O)[C@@H]2[C@@H](O)CCN2C(=O)[C@H]([C@H](O)CCN)NC(=O)[C@H]([C@H](O)[C@@H](O)c2ccc(O)cc2)NC(=O)[C@@H]2C[C@@H](O)CN2C(=O)[C@H]([C@@H](C)O)NC1=O` [Caspofungin, caspofungin] was tested, and the MIC ([1]; Candida albicans) was 1 µg/mL (≈ 0.915 µM), the “Biofilm MIC80” value [2] was 0.12 µg/mL and the “Activity against C. albicans monomicrobial biofilms” value [2] was “retaining their activities”.
